Publication PMC7118210 (Frontiers in Pharmacology, 2020)

Experiments:
CYP 2C9 = biological target: T1, CYP 2C9 (Homo sapiens, UniProt P11712); experiment: CYP enzyme pathway, human liver microsomes with sulfaphenazole (system III-human); format: in vitro ADME; settings: CYP2C9, major metabolic enzyme; of six metabolites measured in system III-human
T1 construct: human liver microsomes (2.25 μl); tissue RILD Research Institute for Live Diseases (Shanghai, China) Co.Ltd; host or cells: human liver microsomes, 10-donor pooled
Procedure: (§1) Five single inhibitor working solutions were separately added. Their concentrations were as follows: α-naphthoflavone (0.04 mM) for CYP 1A2, sulfaphenazole (0.8 mM) for CYP 2C9, (+/-)-N-3-benzylnirvanol (0.8 mM) for CYP 2C19, quinidine (0.08 mM) for CYP 2D6, and ketoconazole (0.04 mM) for CYP 3A4/5. All protein concentrations were 0.15 mg ml^-1 in the incubation system, except 0.3 mg ml^-1 for the sulfaphenazole working solution. Then, NADPH (10 mM, 30 μl) was added and the mixed solution incubated for 45 min. Finally, cold acetonitrile (600 μl, containing 100 ng ml^-1 flufenamic acid) was added to every tube, mixed by vortexing, centrifuged for 30 min at 14,000 g and 4°C, and the supernatants transferred into centrifuge tubes and injected into the UHPLC/MS/MS system as described above. Incubations were run in triplicate experiments.
(§2) To analyze compounds in incubation system III-human, a Luna C18 column (Phenomenex Inc., Torrance, CA, USA; 2.0 mm × 50 mm, 5 μm) was used at 40°C. The mobile phase consisted of 0.1% formic acid (v/v) in water (A) and 0.1% formic acid in acetonitrile (B). […] The injection volume was 10 μl with flow rate of 0.2 ml min^-1. The compounds were detected by multiple reaction monitoring in the negative ion electrospray mode.

CYP 2C19 = biological target: T2, CYP 2C19 (Homo sapiens, UniProt P33261); experiment: CYP enzyme pathway, human liver microsomes with (+/-)-N-3-benzylnirvanol (system III-human); format: in vitro ADME; settings: CYP2C19; of six metabolites measured in system III-human
T2 construct: human liver microsomes (2.25 μl); tissue RILD Research Institute for Live Diseases (Shanghai, China) Co.Ltd; host or cells: human liver microsomes, 10-donor pooled
Procedure: as §1, §2

CYP 2D6 = biological target: T3, CYP 2D6 (Homo sapiens, UniProt P10635); experiment: CYP enzyme pathway, human liver microsomes with quinidine (system III-human); format: in vitro ADME; settings: CYP2D6; of six metabolites measured in system III-human
T3 construct: human liver microsomes (2.25 μl); tissue RILD Research Institute for Live Diseases (Shanghai, China) Co.Ltd; host or cells: human liver microsomes, 10-donor pooled
Procedure: as §1, §2

CYP 3A4/5 = experiment: CYP enzyme pathway, human liver microsomes with ketoconazole (system III-human); format: in vitro ADME; settings: CYP3A4/5; of six metabolites measured in system III-human
Procedure: as §1, §2

CYP 1A2 = biological target: T4, CYP 1A2 (Homo sapiens, UniProt P05177); experiment: CYP enzyme pathway, human liver microsomes with α-naphthoflavone (system III-human); format: in vitro ADME; settings: CYP1A2; of six metabolites measured in system III-human
T4 construct: human liver microsomes (2.25 μl); tissue RILD Research Institute for Live Diseases (Shanghai, China) Co.Ltd; host or cells: human liver microsomes, 10-donor pooled
Procedure: as §1, §2

[1] = set-up: method as in Li P. et al., 2013; settings: Sprague-Dawley rats, 16 g kg^-1; ref Li P. et al., 2013; cited from earlier work
[2] = set-up: method as in Liu M. et al., 2011; Li et al., 2014; settings: Sprague-Dawley rats, 1,250 mg kg^-1 day^-1 for 184 days; ref Liu M. et al., 2011; Li et al., 2014; cited from earlier work
[3] = Stability of naringin and naringenin in human feces with active enzymes; format: in vitro ADME; settings: human feces in normal saline, 37°C for 12 h (over night)
Procedure: Next, 9-fold normal saline, instead of ninefold methanol-normal saline (2:1, v/v), was added to maintain enzyme activity in the feces. […] These samples were maintained at 37°C for 12 h.

[4] = Metabolites in rat liver microsomes (systems I-rat, II-rat); format: in vitro ADME, Sprague-Dawley rat
Procedure: (§3) Then, NADPH-B (10 μl) was added and incubated for 2 h. […] Then, UDPGA (50 μl) was added and incubated for 2 h. […] Then, UDPGA (50 μl) was added and incubated for 2 h. In addition, the naringenin solution (1 mM, 10 μl) was evaluated in rat systems I, II, and III as above.
(§4) The incubated solution (500 μl) of systems I-rat, II-rat, III-rat, I-human, and II-human were extracted with ethyl acetate (500 μl) for at least 3 min by vortexing and centrifuged for 10 min at 13,000 rpm and 4°C. The extraction process described above was performed twice and all supernatants were transferred into centrifuge tubes, dried with N2, and dissolved with methanol-water (1:1, v/v). All samples were injected into a UPLC/Q-TOF-MS system consisting of a Waters Acquity ultra performance liquid chromatography (UPLC) coupled with a Micromass micro™ quadrupole time-of-flight mass spectrometry (Q-TOF-MS) system (Waters Corp., Milford, MA, USA), equipped with an electrospray ionization source, and controlled by the MassLynx (v. 4.1) software. Separation was performed on a Waters Acquity UPLC BEH C18 column (50 mm × 2.1 mm, 1.7 μm) at 40°C. The mobile phase consisted of 0.1% formic acid (v/v) in water (A) and methanol (B) using a linear gradient of 95% to 60% A (0–25 min), 60% to 40% A (25–35 min), 40% to 10% A (35–40 min), 10% A (40–43 min), 10% to 95% A (43–44 min), and 95% A (44–45 min). The injection volume was 5 μl with flow rate of 0.2 ml min^-1. The Q-TOF-MS worked in a full scan mode (100–1,200 m/z), selection ion mode, and product ion mode, in negative ion mode, respectively. The conditions were as follows: capillary voltage 3,000 V, sample cone voltage 30 V, extraction cone voltage 2.0 V, source temperature 100°C, desolvation temperature 350°C, cone gas (N2) flow rate of 40 L/h, desolvation gas (N2) flow rate of 700 L/h, low collision energy 6.0 eV, and high collision energy 20–80 eV. Compounds were detected with accurate mass using leucine enkephalin for mass correction at 554.2615 (m/z) in negative ionization mode.

[5] = Metabolites in rat kidney microsomes (system III-rat); format: in vitro ADME, Sprague-Dawley rat
Procedure: as §3
The incubated solution (500 μl) of systems I-rat, II-rat, III-rat, I-human, and II-human were extracted with ethyl acetate (500 μl) for at least 3 min by vortexing and centrifuged for 10 min at 13,000 rpm and 4°C. The extraction process described above was performed twice and all supernatants were transferred into centrifuge tubes, dried with N2, and dissolved with methanol-water (1:1, v/v). All samples were injected into a UPLC/Q-TOF-MS system consisting of a Waters Acquity ultra performance liquid chromatography (UPLC) coupled with a Micromass micro™ quadrupole time-of-flight mass spectrometry (Q-TOF-MS) system (Waters Corp., Milford, MA, USA), equipped with an electrospray ionization source, and controlled by the MassLynx (v. 4.1) software. Separation was performed on a Waters Acquity UPLC BEH C18 column (50 mm × 2.1 mm, 1.7 μm) at 40°C. […] Compounds were detected with accurate mass using leucine enkephalin for mass correction at 554.2615 (m/z) in negative ionization mode.

[6] = Metabolites in human liver microsomes (systems I-human, II-human); format: in vitro ADME
Procedure: Then, NADPH-B (10 μl) was added and the mixed solution incubated for 2 h. […] Next, UDPGA (50 μl) was added and the mixed solution incubated for 2 h. In addition, the naringenin solution (1 mM, 10 μl) was evaluated in human systems I and II as above.
as §4

T2 sequence (P33261 whole entry): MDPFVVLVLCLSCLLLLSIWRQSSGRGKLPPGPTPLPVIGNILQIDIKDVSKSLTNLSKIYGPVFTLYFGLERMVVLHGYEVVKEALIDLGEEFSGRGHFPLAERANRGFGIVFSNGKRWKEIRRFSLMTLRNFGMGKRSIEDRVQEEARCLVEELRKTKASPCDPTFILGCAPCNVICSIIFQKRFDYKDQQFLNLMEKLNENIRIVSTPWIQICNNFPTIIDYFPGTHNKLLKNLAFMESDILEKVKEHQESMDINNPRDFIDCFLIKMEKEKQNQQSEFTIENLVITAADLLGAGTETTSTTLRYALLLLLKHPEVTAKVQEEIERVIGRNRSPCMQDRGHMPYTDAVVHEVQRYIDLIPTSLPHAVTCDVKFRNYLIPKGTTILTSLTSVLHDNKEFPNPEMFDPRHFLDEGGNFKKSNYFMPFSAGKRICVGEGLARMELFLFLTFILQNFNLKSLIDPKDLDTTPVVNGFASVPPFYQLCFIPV
T4 sequence (P05177 whole entry): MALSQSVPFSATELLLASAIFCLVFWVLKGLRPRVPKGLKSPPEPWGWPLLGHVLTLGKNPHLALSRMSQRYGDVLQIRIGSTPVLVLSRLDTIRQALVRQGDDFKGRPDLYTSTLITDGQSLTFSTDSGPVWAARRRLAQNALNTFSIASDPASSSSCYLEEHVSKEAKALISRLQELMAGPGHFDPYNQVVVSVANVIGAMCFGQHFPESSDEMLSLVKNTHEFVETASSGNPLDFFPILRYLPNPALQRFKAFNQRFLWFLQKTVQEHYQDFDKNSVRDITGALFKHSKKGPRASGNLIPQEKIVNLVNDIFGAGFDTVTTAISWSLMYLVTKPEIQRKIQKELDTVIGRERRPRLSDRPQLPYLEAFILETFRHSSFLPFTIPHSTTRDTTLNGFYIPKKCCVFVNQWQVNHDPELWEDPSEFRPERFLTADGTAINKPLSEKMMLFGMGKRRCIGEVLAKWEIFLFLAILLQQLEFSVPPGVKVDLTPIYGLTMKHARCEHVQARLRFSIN
T1 sequence (P11712 whole entry): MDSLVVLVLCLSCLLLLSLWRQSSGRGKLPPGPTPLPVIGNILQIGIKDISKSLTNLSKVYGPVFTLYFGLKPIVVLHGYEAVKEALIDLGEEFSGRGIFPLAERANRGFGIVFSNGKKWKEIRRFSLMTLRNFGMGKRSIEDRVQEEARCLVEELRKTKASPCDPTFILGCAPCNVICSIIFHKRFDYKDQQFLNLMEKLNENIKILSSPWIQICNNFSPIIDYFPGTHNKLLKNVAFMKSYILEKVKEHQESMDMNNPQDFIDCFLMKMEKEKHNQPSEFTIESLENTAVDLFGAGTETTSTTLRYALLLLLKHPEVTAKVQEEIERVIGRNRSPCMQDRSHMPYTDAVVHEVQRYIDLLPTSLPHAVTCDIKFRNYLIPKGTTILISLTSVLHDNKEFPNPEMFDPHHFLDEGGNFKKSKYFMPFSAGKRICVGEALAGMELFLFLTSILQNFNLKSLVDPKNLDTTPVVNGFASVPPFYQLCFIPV
T3 sequence (P10635 whole entry): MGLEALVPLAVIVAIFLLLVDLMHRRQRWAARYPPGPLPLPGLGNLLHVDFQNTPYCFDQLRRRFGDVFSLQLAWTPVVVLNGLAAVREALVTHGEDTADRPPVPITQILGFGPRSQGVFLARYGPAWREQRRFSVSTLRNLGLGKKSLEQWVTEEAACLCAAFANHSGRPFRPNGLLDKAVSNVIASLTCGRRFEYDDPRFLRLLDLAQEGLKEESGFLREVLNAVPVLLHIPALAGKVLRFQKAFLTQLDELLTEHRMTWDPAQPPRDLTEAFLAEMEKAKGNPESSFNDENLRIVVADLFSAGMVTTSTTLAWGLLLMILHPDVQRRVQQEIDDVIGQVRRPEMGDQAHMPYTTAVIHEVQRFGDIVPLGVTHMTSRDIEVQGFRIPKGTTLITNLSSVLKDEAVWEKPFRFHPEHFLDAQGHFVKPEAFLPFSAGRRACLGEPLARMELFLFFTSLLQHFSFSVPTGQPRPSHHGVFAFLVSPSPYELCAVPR

| amount detected in feces relative to the amount added [3] | found in rat liver microsomes, incubation of naringenin (S) [4] | found in rat kidney microsomes, incubation of G/S [5] | found in human liver microsomes, incubation of naringenin (S) [6] | SMILES | metabolites the enzyme is responsible for (CYP 2C9) | metabolites the enzyme contributes to (CYP 2C19) | metabolites the enzyme contributes to (CYP 2D6) | metabolites the enzyme contributes to (CYP 3A4/5) | metabolites the enzyme contributes to (CYP 1A2) | toxicity after a single p.o. bolus dose [1] | adverse effects in toxicity study [2] |
| --- | --- | --- | --- | --- | --- | --- | --- | --- | --- | --- | --- |
| – | – | – | – | C[C@@H]1O[C@@H](O[C@H]2[C@H](Oc3cc(O)c4c(c3)O[C@H](c3ccc(O)cc3)CC4=O)O[C@H](CO)[C@@H](O)[C@@H]2O)[C@H](O)[C@H](O)[C@H]1O [naringin, Naringin] | six metabolites | four metabolites | three metabolites | two metabolites | one metabolite | no apparent toxicity | no adverse effects |
| less than 20% | + | + | + | O=C1C[C@@H](c2ccc(O)cc2)Oc2cc(O)cc(O)c21 [naringenin, Naringenin] | – | – | – | – | – | – | – |
